Assay results as given in PMC10877733, “Discovery and Characterization of VU0542270, the First Selective Inhibitor of Vascular Kir6.1/SUR2B KATP Channels” (Molecular Pharmacology, 2024).

How the values were obtained:
Kir2.3 = biological target: T1, Kir2.3 (Homo sapiens, UniProt P48050); test: Thallium flux selectivity assay Kir2.3; assay type: cell-based
T1 construct: expressed in transfected cells
T1 sequence (P48050 1-445): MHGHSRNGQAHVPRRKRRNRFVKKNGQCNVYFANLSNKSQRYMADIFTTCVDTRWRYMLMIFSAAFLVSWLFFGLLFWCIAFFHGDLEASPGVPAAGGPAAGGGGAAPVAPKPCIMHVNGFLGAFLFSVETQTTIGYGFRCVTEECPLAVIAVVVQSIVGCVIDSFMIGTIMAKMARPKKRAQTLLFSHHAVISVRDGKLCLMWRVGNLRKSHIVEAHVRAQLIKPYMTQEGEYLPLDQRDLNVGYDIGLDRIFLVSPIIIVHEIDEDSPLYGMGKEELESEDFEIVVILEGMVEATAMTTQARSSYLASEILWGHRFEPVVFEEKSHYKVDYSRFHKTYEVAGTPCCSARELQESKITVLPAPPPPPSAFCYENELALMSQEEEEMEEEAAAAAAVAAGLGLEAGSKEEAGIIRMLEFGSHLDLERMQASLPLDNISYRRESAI
Method: Quantitative thallium flux assays of Kir6.1/SUR2B activity were performed essentially as described previously for Kir6.2/SUR1 ([Raphemot et al., 2014]; [Kharade et al., 2019]). Stable T-Rex-HEK293-Kir6.1/SUR2B cells or transiently transfected HEK293T cells were plated in polyamine-coated, clear-bottomed, black-walled 384-well plates and were cultured (37°C/5% CO2) overnight in Dulbecco’s modified Eagle’s medium (Gibco, Carlsbad, CA, 11995-065) containing 10% FBS (2 mM Penicillin-Streptomycin). The following day, cells were washed with assay buffer (i.e., Hanks’ balanced salt solution/20 mM HEPES) and loaded for 1 hour with thallium sensor dye Brilliant Thallium (Ion Bioscience, San Marcos, TX) at room temperature. Dye-loaded cells were washed with assay buffer and transferred to a Panoptic Kinetic Imaging Plate Reader (Wavefront Bioscience, Franklin, TN). Control and test compound treatments were for 4 minutes prior to adding 0.5 mM chloride-free thallium stimulus buffer (Ion Bioscience) to initiate thallium flux. […] Selectivity assays against other Kir channels were performed essentially as described previously ([Kharade et al., 2018]; [McClenahan et al., 2022]).

[1] = Brain homogenate binding by equilibrium dialysis, rat; assay type: in vitro ADME; settings: read-out: Fu, brain (rat)
Method: Determination of VU0542270 fu in […] from mouse and rat was conducted using the same methodology and procedure as described for plasma protein binding assay with the following modifications: 1) a final compound concentration of 1 μM was used, and 2) naïve rat brains were homogenized in DPBS (1:3 composition of brain:DPBS, w/w) using a Mini-Bead Beater machine to obtain brain homogenate.
The diluted fraction unbound (fu2) in brain was calculated as (analyte to IS MS peak area ratio from Trans-buffer side)/(analyte to IS MS peak area ratio from Cis-brain homogenate side). Undiluted fraction unbound for the brain was calculated using the following equation: [drawing 1]
Mean values for each species were calculated from three replicates.

[2] = Intrinsic clearance in liver microsomes, rat; assay type: in vitro ADME
Method: The in vitro intrinsic clearance (CLint) of VU0542270 was investigated in commercially obtained hepatic microsomes from rat, mouse, and human donors using the substrate depletion (i.e., loss-of-parent versus time, or t1/2 method) approach with analyte detection via LC-MS/MS. For each species, mean per cent parent remaining values at each time point were calculated from replicates raw data (analyte:IS peak area ratios) and used to determine in vitro t1/2 and CLint.
Experiments were carried out using a robot-assisted liquid handling system (TECAN model Evo 200). VU0542270 was incubated (1 µM final concentration) in buffer (100 mM potassium phosphate, pH 7.4, with 3 mM MgCl2) containing hepatic microsomes (0.5 mg/mL final concentration) from multiple species, discretely, at 37°C under constant orbital shaking. After 5 minutes (preincubation), reactions were initiated by the addition of NADPH (1 mM final concentration). At selected time intervals (0, 3, 7, 15, 25, and 45 minutes) post addition of NADPH, aliquots (50 µL) were taken and placed into a 96-shallow-well plate containing ice-cold acetonitrile (150 µL) with carbamazepine (IS, 50 nM). The plates were then centrifuged (3000 rcf at 4°C) for 10 minutes. […]
Predicted hepatic clearance (CLhep) was calculated using the following equation: [drawing 4] […]

IC50 (Kir2.3): > 30 µM
fraction unbound at 6 h, 1 µM [1]: 0.02
Predicted CLhep,u (rat) ([2]; corrected to plasma unbound fraction): 6.0 mL/min per kg
Predicted CLhep (rat) ([2]; from microsomal CLint): 63 mL/min per kg
Compound: Cc1nc(-c2cccs2)sc1CNC(=O)Nc1cccs1 [VU0542270]
